# Source: US5223637A, “KS-506 compounds” (Kyowa Hakko Kogyo Co., Ltd., priority 1988, dated 1993)
# Where a name gives a salt, the structure may show the parent alone.
# What was measured:
# [1] = test system: PDE preparation partially purified from bovine cerebral cortex; assay: PDE-inhibiting activity (Experimental Example 1); type: biochemical; conditions: 1.2 mM cAMP, 4 U/ml calmodulin, 50 μM calcium chloride, pH 6.9, 30° C., 30 minutes
# Experimental: Methanol solutions of the test compounds at various concentrations (50 μl each) were respectively added to 500 μl of a reaction mixture comprising 80 mM imidazole-hydrochloride buffer (pH 6.9), 3 mM magnesium sulfate, 0.3 mM dithiothreitol, 100 mM sodium chloride, 50 μM calcium chloride, 1.2 mM cAMP, 4 U/ml calmodulin (1U is defined as the amount which activates 50% of the maximum activity of PDE under the conditions) and 26 mU/ml PDE (1U is defined as the amount which hydrolyzes 1 μmol of cAMP in one minute), and reaction was allowed to proceed at 30° C. for 30 minutes.
# The reaction was discontinued by heating at 100° C. for 5 minutes. Then, 6 μmol of manganese chloride and 0.2 U of 5'-nucleotidase (1U is defined as the amount which forms 1 μmol of phosphoric acid in one minute) were added to the reaction mixture, and reaction was allowed to proceed at 30° C. for 30 minutes. […] Inhibition rate was calculated in accordance with the following equation:
# Inhibition rate=(A-B)/A×100 (%)
# A: Amount of the inorganic phosphoric acid formed in the absence of a test compound
# B: Amount of the inorganic phosphoric acid formed in the presence of a test compound
# [2] = Solubility; type: physicochemical; conditions: for Solubility (solvents in which insoluble): hexane and water; for Solubility (solvents in which soluble): organic solvents as listed
# [3] = test system: Rat Peritoneal Exudate Cells; assay: Effect on Histamine Release from Rat Peritoneal Exudate Cells (Experimental Example 2); type: cell-based; conditions: phosphatidyl-L-serine and concanavalin A stimulation; for IC50: 37° C., read-out: IC50 (concentration of a test compound which inhibits histamine release by 50%)
# Experimental: Effect on Histamine Release from Rat Peritoneal Exudate Cells
# 1) Preparation of Suspension of Rat Abdominal Cavity Cells and Effect on Histamine Release
# Rats weighing from 350 to 450 g were sacrificed by exsanguination under dry ether anesthesia, and a medium for mast cells (composition : 150 mM NaCl, 3.7 mM KCl, 3 mM Na2 HPO4, 3.5 mM KH2 PO4, 1 mM CaCl2, 5.6 mM glucose, 0.1% bovine serum albumin and 10 U/ml heparin) prepared according to the method of Sullivan, et al. [J. Immunol. 114, 1473 (1973)] was intraperitoneally injected into the animals in an amount of 15 ml/animal. After massage of the abdominal parts for 2 minutes, the animals were subjected to celiotomy to sample exudate in the abdominal cavities. The collected exudate was subjected to centrifugation at 100 xg at 4° C. for 5 minutes, and the precipitate was mixed with an appropriate amount of the ice-cooled medium for mast cells mentioned above to prepare a suspension. Then, the centrifugation and the addition of the medium were repeated three times to prepare a cell suspension wherein the final concentration of the mast cells was about 2×10^5 cells/ml. Identification of the mast cells was carried out by staining intracellular granules with 0.05% Toluidine Blue.
# One milliliter portions of the thus obtained cell suspension were preincubated at 37° C. for 5 minutes, and then respectively mixed with 0.1 ml each of test compound solutions having various concentrations,followed by incubation for 5 minutes. The incubated mixtures were further mixed with 0.1 ml each of 10 μg/ml phosphatidyl-L-serine and concanavalin A, and then incubated for 15 minutes.
# Spontaneous histamine release was determined under similar incubation conditions except that physiological saline was used in place of phosphatidyl-L-serine and concanavalin A.
# The reaction was stopped by addition of 3 ml of ice-cooled physiological saline, and the cell suspension was subjected to centrifugation at 1100 xg at 4° C. for 10 minutes to obtain a supernatant and a residue. Histamine contents of the supernatant and the residue were measured by the fluorescence method according to the method of Komatsu [Allergy 27, 67 (1978)]. Histamine release rate was indicated as the percentage of the histamine content of the supernatant to the total histamine content of the cells. The rate of inhibition of histamine release by the test compound solution was calculated according to the following equation: [formula]
Structure (SMILES),IC50 (concentration of a test compound inhibiting 50% of the PDE activity) [1] [µg/mL],Solubility (solvents in which insoluble) [2],Solubility (solvents in which soluble) [2],other results
Cc1c(C)c(C(=O)Oc2c(C)c(O)c(C)c(C)c2SSc2c(C)c(C)c(O)c(C)c2OC(=O)c2c(C)c(C)c(O)c(C)c2O)c(O)c(C)c1O [KS-506g],0.080,insoluble in hexane and water,"soluble in methanol, ethanol, acetone, ethyl acetate, acetonitrile, dimethylsulfoxide and chloroform",–
COC(=O)c1c(C)c(C)c(O)c(C)c1OC(=O)c1c(C)c(C)c(O)c(C)c1O [KS-506h],–,insoluble in hexane and water,"soluble in methanol, acetone, ethyl acetate, acetonitrile and dimethylsulfoxide","inhibition at 3 µg/mL ([3]; concentration of test compound 3.0 μg/ml, read-out: Release inhibition rate): 13.9%; inhibition at 10 µg/mL ([3]; concentration of test compound 10.0 μg/ml, read-out: Release inhibition rate): 59.9%; IC50 [3]: 8.2 µg/mL"
Cc1c(C)c(C(=O)Oc2c(C)c(O)c(C)c(C)c2SSC(=O)c2c(C)c(C)c(O)c(C)c2OC(=O)c2c(C)c(C)c(O)c(C)c2O)c(O)c(C)c1O [KS-506x],0.28,insoluble in hexane and water,"soluble in methanol, ethanol, acetone, ethyl acetate, acetonitrile, dimethylsulfoxide and chloroform",–
"COc1ccc(Cc2nccc3cc(OC)c(OC)cc23)cc1OC [Papaverine hydrochloride, reference compound]",60,–,–,–
"COc1c(O)cc2cc(C)oc(=O)c2c1O [Reticurol, reference compound]",20,–,–,–

# More lines, main results first:
IC50 (concentration of a test compound inhibiting 50% of the PDE activity) [1] [µg/mL],Solubility (solvents in which insoluble) [2],Structure (SMILES),Solubility (solvents in which soluble) [2],other results
1.22,insoluble in hexane and water,Cc1c(C)c(C(=O)Oc2c(C)c(O)c(C)c(C)c2C(=O)SSC(=O)c2c(C)c(C)c(O)c(C)c2OC(=O)c2c(C)c(C)c(O)c(C)c2O)c(O)c(C)c1O [KS-506a],"soluble in methanol, ethanol, acetone, ethyl acetate, acetonitrile, dimethylsulfoxide and chloroform",–
–,insoluble in hexane and water,CC(=O)CCSC(=O)c1c(C)c(C)c(O)c(C)c1OC(=O)c1c(C)c(C)c(O)c(C)c1O [KS-506m],"soluble in methanol, acetone, ethyl acetate, acetonitrile and dimethylsulfoxide","inhibition at 0.5 µg/mL ([3]; concentration of test compound 0.5 μg/ml, read-out: Release inhibition rate): 27.9%; inhibition at 1.5 µg/mL ([3]; concentration of test compound 1.5 μg/ml, read-out: Release inhibition rate): 58.4%; inhibition at 5 µg/mL ([3]; concentration of test compound 5.0 μg/ml, read-out: Release inhibition rate): 83.3%; IC50 [3]: 1.2 µg/mL"
